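Briefly, cells in 96-well plates were exposed to five compound concentrations for 48 h, and endpoints were estimated by linear interpolation. Definition used: TGI = concentration required for complete inhibition of growth.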
How the values were obtained:
Test in all cases: NCI-60 cell line screen, 48 h
[1] = system: 786-0 renal
[2] = system: A549 NSCLC
[3] = system: ACHN renal
[4] = system: CAKI-1 renal
[5] = system: CCRF-CEM leukemia
[6] = system: COLO 205 colon
[7] = system: DU-145 prostate
[8] = system: EKVX NSCLC
[9] = system: HCC-2998 colon
[10] = system: HCT-116 colon
[11] = system: HCT-15 colon
[12] = system: HL-60(TB) leukemia
[13] = system: HOP-62 NSCLC
[14] = system: HOP-92 NSCLC
[15] = system: HS 578T breast
[16] = system: HT29 colon
[17] = system: IGROV1 ovarian
[18] = system: K-562 leukemia
[19] = system: KM12 colon
[20] = system: LOX IMVI melanoma
[21] = system: M14 melanoma
[22] = system: MCF7 breast
[23] = system: MDA-MB-231 breast
[24] = system: MDA-MB-435
[25] = system: MDA-N
[26] = system: MOLT-4 leukemia
[27] = system: NCI-H226 lung
[28] = system: NCI-H23 lung
[29] = system: NCI-H460 lung
[30] = system: NCI-H522 lung
[31] = system: NCI/ADR-RES ovarian
[32] = system: OVCAR-3 ovarian
[33] = system: OVCAR-4 ovarian
[34] = system: OVCAR-5 ovarian
[35] = system: OVCAR-8 ovarian
[36] = system: PC-3 prostate
[37] = system: RPMI-8226 leukemia
[38] = system: RXF 393 renal
[39] = system: SF-268 CNS
[40] = system: SF-295 CNS
[41] = system: SF-539 CNS
[42] = system: SK-MEL-2 melanoma
[43] = system: SK-MEL-28 melanoma
[44] = system: SK-MEL-5 melanoma
[45] = system: SK-OV-3 ovarian
[46] = system: SN12C renal
[47] = system: SNB-19 CNS
[48] = system: SNB-75 CNS
[49] = system: SR leukemia
[50] = system: SW-620 colon
[51] = system: T-47D breast
[52] = system: TK-10 renal
[53] = system: U251 CNS
[54] = system: UACC-257 melanoma
[55] = system: UACC-62 melanoma
[56] = system: UO-31 renal
[57] = system: MALME-3M melanoma
[58] = system: A498 renal

SMILES: Cc1ccc(S(=O)(=O)NC2C(=O)c3ccccc3C(=O)C2n2ccnc2)cc1 (stereo not given)
- TGI [1]: 32.8 µM
- TGI [2]: > 100 µM
- TGI [3]: > 100 µM
- TGI [4]: > 100 µM
- TGI [5]: 52.9 µM
- TGI [6]: > 100 µM
- TGI [7]: 30.7 µM
- TGI [8]: > 100 µM
- TGI [9]: > 100 µM
- TGI [10]: 53.1 µM
- TGI [11]: > 100 µM
- TGI [12]: 46.4 µM
- TGI [13]: > 100 µM
- TGI [14]: > 100 µM
- TGI [15]: > 100 µM
- TGI [16]: > 100 µM
- TGI [17]: > 100 µM
- TGI [18]: > 100 µM
- TGI [19]: > 100 µM
- TGI [20]: 25 µM
- TGI [21]: > 100 µM
- TGI [22]: > 100 µM
- TGI [23]: 29.5 µM
- TGI [24]: 33 µM
- TGI [25]: 29 µM
- TGI [26]: 80.8 µM
- TGI [27]: > 100 µM
- TGI [28]: > 100 µM
- TGI [29]: > 100 µM
- TGI [30]: 5.77 µM
- TGI [31]: > 100 µM
- TGI [32]: > 100 µM
- TGI [33]: > 100 µM
- TGI [34]: > 100 µM
- TGI [35]: > 100 µM
- TGI [36]: > 100 µM
- TGI [37]: > 100 µM
- TGI [38]: > 100 µM
- TGI [39]: > 100 µM
- TGI [40]: > 100 µM
- TGI [41]: > 100 µM
- TGI [42]: > 100 µM
- TGI [43]: > 100 µM
- TGI [44]: > 100 µM
- TGI [45]: > 100 µM
- TGI [46]: 28.3 µM
- TGI [47]: > 100 µM
- TGI [48]: > 100 µM
- TGI [49]: > 100 µM
- TGI [50]: > 100 µM
- TGI [51]: 38.8 µM
- TGI [52]: > 100 µM
- TGI [53]: > 100 µM
- TGI [54]: > 100 µM
- TGI [55]: > 100 µM
- TGI [56]: > 100 µM

SMILES: Cc1coc2c1[C@@H](O)[C@@]1(C)[C@H](CCC[C@@H]1C)C2
- TGI [1]: > 100 µM
- TGI [3]: > 100 µM
- TGI [4]: > 100 µM
- TGI [5]: > 100 µM
- TGI [6]: 60.1 µM
- TGI [7]: > 100 µM
- TGI [8]: > 100 µM
- TGI [9]: > 100 µM
- TGI [10]: > 100 µM
- TGI [11]: > 100 µM
- TGI [12]: 62 µM
- TGI [13]: 93.2 µM
- TGI [14]: > 100 µM
- TGI [15]: > 100 µM
- TGI [16]: > 100 µM
- TGI [17]: > 100 µM
- TGI [18]: 74.7 µM
- TGI [19]: > 100 µM
- TGI [20]: > 100 µM
- TGI [21]: 43.9 µM
- TGI [57]: 99 µM
- TGI [22]: > 100 µM
- TGI [23]: 59.3 µM
- TGI [24]: 38.1 µM
- TGI [25]: 64.1 µM
- TGI [26]: 89.4 µM
- TGI [27]: 76.3 µM
- TGI [28]: > 100 µM
- TGI [29]: > 100 µM
- TGI [30]: 73.5 µM
- TGI [31]: 54.5 µM
- TGI [32]: 64.8 µM
- TGI [33]: > 100 µM
- TGI [34]: > 100 µM
- TGI [35]: 47.8 µM
- TGI [36]: > 100 µM
- TGI [37]: 90.6 µM
- TGI [38]: 55 µM
- TGI [39]: > 100 µM
- TGI [40]: > 100 µM
- TGI [41]: 47 µM
- TGI [43]: > 100 µM
- TGI [44]: 77.5 µM
- TGI [45]: > 100 µM
- TGI [46]: 75.7 µM
- TGI [47]: > 100 µM
- TGI [49]: > 100 µM
- TGI [50]: > 100 µM
- TGI [51]: > 100 µM
- TGI [52]: > 100 µM
- TGI [54]: 84.3 µM
- TGI [55]: > 100 µM

SMILES: CC1=NN(c2cccc(Cl)c2)C2(SCC(=O)N2c2nc3ccccc3s2)/C1=C\c1ccccc1 (stereo not given)
- TGI [1]: 31 µM
- TGI [58]: 51.8 µM
- TGI [3]: 48.4 µM
- TGI [4]: 53 µM
- TGI [5]: > 100 µM
- TGI [7]: 45.3 µM
- TGI [8]: > 100 µM
- TGI [9]: 29.3 µM
- TGI [10]: 29.4 µM
- TGI [11]: 37.4 µM
- TGI [12]: 67.7 µM
- TGI [13]: 56.7 µM
- TGI [14]: 25.6 µM
- TGI [15]: 55.4 µM
- TGI [16]: 44.8 µM
- TGI [17]: 58.7 µM
- TGI [18]: 54.4 µM
- TGI [19]: 32.2 µM
- TGI [20]: 66.6 µM
- TGI [21]: 70.1 µM
- TGI [22]: 84.3 µM
- TGI [23]: 55.5 µM
- TGI [24]: 38.9 µM
- TGI [25]: 42.3 µM
- TGI [26]: 60.2 µM
- TGI [27]: 97.4 µM
- TGI [28]: 51.9 µM
- TGI [29]: 32.4 µM
- TGI [30]: 34.6 µM
- TGI [31]: 83.3 µM
- TGI [32]: > 100 µM
- TGI [33]: 62.7 µM
- TGI [34]: 58.8 µM
- TGI [35]: 45.7 µM
- TGI [36]: 64.2 µM
- TGI [37]: 46.8 µM
- TGI [38]: 40.6 µM
- TGI [39]: 54.4 µM
- TGI [40]: 81.2 µM
- TGI [41]: > 100 µM
- TGI [42]: 46.7 µM
- TGI [43]: > 100 µM
- TGI [44]: 30.3 µM
- TGI [45]: 55.1 µM
- TGI [48]: > 100 µM
- TGI [49]: 63.3 µM
- TGI [50]: 37.3 µM
- TGI [51]: > 100 µM
- TGI [52]: > 100 µM
- TGI [53]: 44.3 µM
- TGI [54]: 85.2 µM
- TGI [56]: 63.6 µM

Source: PubChem BioAssay (NCI)
